# Read-outs that look alike come from different tables or passages of the source.
# Target: Full-length human SAMHD1 (Homo sapiens, UniProt Q9Y3Z3)
# Assay: Enzyme-coupled malachite green
# Format: biochemical
# Conditions: for SAMHD1 inhibition (in words): MG assay dose-response curves; for Hill slope h: variable Hill slope fit (eq 2)
# Sequence of Full-length human SAMHD1 (Q9Y3Z3 whole entry): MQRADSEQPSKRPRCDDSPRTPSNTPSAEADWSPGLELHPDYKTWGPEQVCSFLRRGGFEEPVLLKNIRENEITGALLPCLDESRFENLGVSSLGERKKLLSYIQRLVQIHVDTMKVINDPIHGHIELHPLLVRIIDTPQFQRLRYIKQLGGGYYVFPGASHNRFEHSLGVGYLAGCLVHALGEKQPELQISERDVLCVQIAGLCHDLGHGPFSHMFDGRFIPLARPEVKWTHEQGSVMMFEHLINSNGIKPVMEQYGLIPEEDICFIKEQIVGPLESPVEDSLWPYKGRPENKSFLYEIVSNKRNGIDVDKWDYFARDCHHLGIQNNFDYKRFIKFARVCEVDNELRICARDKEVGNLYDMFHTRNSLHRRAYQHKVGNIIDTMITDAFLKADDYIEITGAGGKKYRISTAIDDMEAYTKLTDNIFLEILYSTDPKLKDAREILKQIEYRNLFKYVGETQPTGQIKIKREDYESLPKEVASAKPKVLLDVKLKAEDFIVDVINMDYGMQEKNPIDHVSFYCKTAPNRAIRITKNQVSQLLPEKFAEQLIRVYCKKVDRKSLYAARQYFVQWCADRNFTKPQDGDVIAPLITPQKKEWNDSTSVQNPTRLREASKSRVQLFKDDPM
SMILES,SAMHD1 inhibition (in words),also measured
Nc1nc2c(ncn2[C@@H]2O[C@H](CO)[C@@H](O)[C@H]2O)c(=O)[nH]1 [rGuo],significantly weaker inhibition,
"Cc1cn([C@H]2C[C@H](O)[C@@H](CO)O2)c(=O)[nH]c1=O [dThy, deoxythymidine]",only dGuo showed significant inhibition,
Nc1nc2c(ncn2[C@H]2CC[C@@H](CO)O2)c(=O)[nH]1 [ddGuo],significantly weaker inhibition,
[Cl-].[Cl-].[Zn+2] [Zn^2+],,"Hill slope h (MG assay dose-response): 1.2 ± 0.1; IC50 (MG assay dose-response, 0.5 μM SAMHD1, 5 μM PPase, 0.1 mM dGTP, 5 mM MgCl2): 2.1 ± 0.2 µM; inhibition after addition of EDTA (approximately stoichiometric amounts of EDTA added): completely rescued"
"CC(=O)OCC1=C(C(=O)O)N2C(=O)[C@@H](NC(=O)CCC[C@@H](N)C(=O)O)[C@H]2SC1 [Ceph C, cephalosporin C]",weakly inhibitory,
"Nc1ncnc2c1ncn2[C@H]1C[C@H](O)[C@@H](CO)O1 [dAdo, deoxyadenosine]",only dGuo showed significant inhibition,
"CC(=O)OCC1=C(C(=O)O)N2C(=O)[C@@H](NC(=O)CCC[C@@H](N)C(=O)O)[C@H]2SC1 [CC-Zn, cephalosporin C]",,Hill slope h (MG assay dose-response): 1.4 ± 0.1; fold more potent inhibitor (Zn2+ salt vs sodium salt of Ceph C) (ratio of IC50 values of the two salt forms): 200 fold
"Nc1nc2c(ncn2[C@H]2C[C@H](O)[C@@H](CO)O2)c(=O)[nH]1 [dGuo, deoxyguanosine]",significant inhibition,IC50: 488 ± 50 µM
O=c1[nH]cnc2c1ncn2[C@H]1C[C@H](O)[C@@H](CO)O1 [dIno],significantly less inhibitory,
"Nc1ccn([C@H]2C[C@H](O)[C@@H](CO)O2)c(=O)n1 [dCyt, deoxycytosine]",only dGuo showed significant inhibition,
"O=c1ccn([C@H]2C[C@H](O)[C@@H](CO)O2)c(=O)[nH]1 [dUrd, deoxyuridine]",only dGuo showed significant inhibition,

# Reference: article PMC4475474 (Journal of biomolecular screening, 2015)
